Assay results: US20260062422A1 (Halda Therapeutics OpCo, Inc., priority 2022, published 2026)

Assays:
T47D cells = test: Cellular growth inhibition assay for T47D cells, CellTiter-Glo; format: cell-based, human; conditions: Homo sapiens, T47D, 72 h, 72 hours treatment, CellTiter-Glo 2.0 cell viability
Method in brief: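 Cells are plated at 3000/well and allowed 24 h before treatment. Test compound in medium containing 0.5% DMSO is then added, with DMSO-only wells as negative control, and plates are incubated 72 h at 37 °C. ATP luminescence (CellTiter-Glo 2.0) is then fitted to four parameters to derive GI50.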

[1] = system: T-Rex 293 cell line SC3 cells having increased expression of androgen receptor protein due to exposure to doxycycline; test: Cellular growth inhibition, T-Rex 293 SC3 cells with doxycycline (androgen receptor induced), CellTiter-Glo; format: cell-based; conditions: 72 h, T-Rex 293 SC3 cells with 10 ng/mL doxycycline (increased androgen receptor expression)
Method in brief: (§1)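 With DMSO (0.5%) vehicle as negative control, compounds treated SC3 cells for 72 h in medium containing charcoal-dextran FBS ± doxycycline. This T-Rex 293 clone expresses transfected wild-type AR on induction. Readout: CellTiter-Glo 2.0; GI50 by nonlinear regression.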

[2] = system: T-Rex 293 cell line SC3 cells lacking increased expression of androgen receptor protein; test: Cellular growth inhibition, T-Rex 293 SC3 cells without doxycycline, CellTiter-Glo; format: cell-based; conditions: 72 h, T-Rex 293 SC3 cells not exposed to doxycycline, CellTiter-Glo 2.0
Method in brief: as §1

VCaP cells = test: Cellular growth inhibition assay for VCaP cells, CellTiter-Glo; format: cell-based, human; conditions: Homo sapiens, VCaP, 72 h, 72 hours treatment, CellTiter-Glo 2.0
Method in brief: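 GI50 values come from four-parameter curve fits of luminescence data normalized to a zero baseline. Compound, in medium with 0.5% DMSO, was added one day after plating and left for 72 h before CellTiter-Glo 2.0 addition.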

| Compound | GI50 (T47D cells) [nM] | GI50 (VCaP cells) [nM] | GI50 [1] [nM] | GI50 [2] [nM] |
| --- | --- | --- | --- | --- |
| Cc1sc2c(c1C)C(c1ccc(CCCOC3CCN(c4ncc(C(=O)N[C@H]5C(C)(C)[C@H](Oc6ccc(C#N)c(Cl)c6)C5(C)C)cn4)CC3)cc1)=N[C@@H](Cc1cnccn1)c1nnc(C)n1-2 [Compound I-277] | > 3000 | > 3000 | < 500 | > 3000 |
| Cc1sc2c(c1C)C(c1ccc(CCCOC3CCN(c4ncc(C(=O)N[C@H]5C(C)(C)[C@H](Oc6ccc(C#N)c(Cl)c6)C5(C)C)cn4)CC3)cc1)=N[C@H](Cc1cnccn1)c1nnc(C)n1-2 [Compound I-278] | < 500 | < 500 | < 500 | < 500 |
| Cc1sc2c(c1C)C(c1ccc(OC3CC4(CCN(c5ncc(C(=O)N[C@H]6C(C)(C)[C@H](Oc7ccc(C#N)c(Cl)c7)C6(C)C)cn5)CC4)C3)cc1)=N[C@@H](Cc1ncon1)c1nnc(C)n1-2 [Compound I-279] | < 500 | 1500 to 3000 | < 500 | > 3000 |
| Cc1sc2c(c1C)C(c1ccc(OC3CC4(CCN(c5ncc(C(=O)N[C@H]6C(C)(C)[C@H](Oc7ccc(C#N)c(Cl)c7)C6(C)C)cn5)CC4)C3)cc1)=N[C@@H](CC(C)(C)O)c1nnc(C)n1-2 [Compound I-280] | > 3000 | < 500 | < 500 | > 3000 |
| Cc1sc2c(c1C)C(c1ccc(O[C@H]3C[C@@H](N(C(C)C)C4CCN(c5ncc(C(=O)N[C@H]6C(C)(C)[C@H](Oc7ccc(C#N)c(Cl)c7)C6(C)C)cn5)CC4)C3)cc1)=N[C@@H](Cc1ncco1)c1nnc(C)n1-2 [Compound I-281] | < 500 | < 500 | < 500 | 500 to 1500 |
| Cc1sc2c(c1C)C(c1ccc(OC3CC4(C3)C[C@H](C)N(c3ncc(C(=O)N[C@H]5C(C)(C)[C@H](Oc6ccc(C#N)c(Cl)c6)C5(C)C)cn3)[C@@H](C)C4)cc1)=N[C@@H](Cc1ncco1)c1nnc(C)n1-2 (stereo partly shown) [Compound I-282] | < 500 | > 3000 | < 500 | > 3000 |
| Cc1sc2c(c1C)C(c1ccc(C(=O)N3CCN(C(=O)c4ncc(C(=O)N[C@H]5C(C)(C)[C@H](Oc6ccc(C#N)c(Cl)c6)C5(C)C)cn4)CC3)cc1)=N[C@@H](Cc1ncco1)c1nnc(C)n1-2 [Compound I-285] | > 3000 | > 3000 | > 3000 | > 3000 |
| Cc1sc2c(c1C)C(c1ccc(C(=O)N3CCN(C(=O)c4ncc(C(=O)N[C@H]5C(C)(C)[C@H](Oc6ccc(C#N)c(Cl)c6)C5(C)C)cn4)CC3)cc1)=N[C@H](Cc1ncco1)c1nnc(C)n1-2 [Compound I-286] | > 3000 | > 3000 | 500 to 1500 | > 3000 |
| Cc1sc2c(c1C)C(c1ccc(C(=O)N3CCC(Cc4ncc(C(=O)N[C@H]5C(C)(C)[C@H](Oc6ccc(C#N)c(Cl)c6)C5(C)C)cn4)CC3)cc1)=N[C@@H](Cc1ncco1)c1nnc(C)n1-2 [Compound I-288] | > 3000 | > 3000 | > 3000 | > 3000 |
| Cc1sc2c(c1C)C(c1ccc(C(=O)N3CCC(Cc4ncc(C(=O)N[C@H]5C(C)(C)[C@H](Oc6ccc(C#N)c(Cl)c6)C5(C)C)cn4)CC3)cc1)=N[C@H](Cc1ncco1)c1nnc(C)n1-2 [Compound I-289] | > 3000 | 500 to 1500 | < 500 | > 3000 |
| Cc1sc2c(c1C)C(c1ccc(CN3CCN(C(=O)c4ncc(C(=O)N[C@H]5C(C)(C)[C@H](Oc6ccc(C#N)c(Cl)c6)C5(C)C)cn4)CC3)cc1)=N[C@@H](Cc1ncco1)c1nnc(C)n1-2 [Compound I-290] | 1500 to 3000 | < 500 | < 500 | 500 to 1500 |
| Cc1sc2c(c1C)C(c1ccc(N3CCC(CNC(=O)c4ncc(C(=O)N[C@H]5C(C)(C)[C@H](Oc6ccc(C#N)c(Cl)c6)C5(C)C)cn4)CC3)cc1)=N[C@H](Cc1ncco1)c1nnc(C)n1-2 [Compound I-291] | 500 to 1500 | < 500 | < 500 | 500 to 1500 |
| Cc1sc2c(c1C)C(c1ccc(CNC(=O)CNC(=O)c3ncc(C(=O)N[C@H]4C(C)(C)[C@H](Oc5ccc(C#N)c(Cl)c5)C4(C)C)cn3)cc1)=N[C@@H](Cc1ncco1)c1nnc(C)n1-2 [Compound I-292] | > 3000 | 500 to 1500 | > 3000 | > 3000 |
| Cc1sc2c(c1C)C(c1ccc(C(=O)N3CCC(N(C)c4ncc(C(=O)N[C@H]5C(C)(C)[C@H](Oc6ccc(C#N)c(Cl)c6)C5(C)C)cn4)CC3)cc1)=N[C@@H](Cc1ncco1)c1nnc(C)n1-2 [Compound I-293] | > 3000 | > 3000 | < 500 | > 3000 |
| Cc1sc2c(c1C)C(c1ccc(C(=O)N3CCC(N(C)c4ncc(C(=O)N[C@H]5C(C)(C)[C@H](Oc6ccc(C#N)c(Cl)c6)C5(C)C)cn4)CC3)cc1)=N[C@H](Cc1ncco1)c1nnc(C)n1-2 [Compound I-294] | 500 to 1500 | 1500 to 3000 | < 500 | > 3000 |
| Cc1sc2c(c1C)C(c1ccc(C[C@H]3CC[C@@H]4CN(c5ncc(C(=O)N[C@H]6C(C)(C)[C@H](Oc7ccc(C#N)c(Cl)c7)C6(C)C)cn5)CCN4C3)cc1)=C[C@H](Cc1ncco1)c1nnc(C)n1-2 [Compound I-306] | < 500 | < 500 | < 500 | < 500 |

More lines, main results first:

| GI50 (T47D cells) [nM] | GI50 (VCaP cells) [nM] | Compound | GI50 [1] [nM] | GI50 [2] [nM] |
| --- | --- | --- | --- | --- |
| < 500 | < 500 | Cc1sc2c(c1C)C(c1ccc(CCCN3CC4(C3)CN(c3ncc(C(=O)N[C@H]5C(C)(C)[C@H](Oc6ccc(C#N)c(Cl)c6)C5(C)C)cn3)C4)cc1)=N[C@@H](Cc1ncco1)c1nnc(C)n1-2 [Compound I-284] | < 500 | 500 to 1500 |
| < 500 | < 500 | Cc1sc2c(c1C)C(c1ccc(CCC(=O)N3CCN(c4ncc(C(=O)N[C@H]5C(C)(C)[C@H](Oc6ccc(C#N)c(Cl)c6)C5(C)C)cn4)CC3)cc1)=N[C@@H](Cc1ncco1)c1nnc(C)n1-2 [Compound I-287] | < 500 | < 500 |
| < 500 | < 500 | Cc1sc2c(c1C)C(c1ccc([C@@H]3CCCN(c4ncc(C(=O)N[C@H]5C(C)(C)[C@H](Oc6ccc(C#N)c(Cl)c6)C5(C)C)cn4)C3)cc1)=N[C@@H](Cc1ncco1)c1nnc(C)n1-2 [Compound I-295] | < 500 | < 500 |
| < 500 | < 500 | Cc1sc2c(c1C)C(c1ccc(C[C@@H]3CCCN(c4ncc(C(=O)N[C@H]5C(C)(C)[C@H](Oc6ccc(C#N)c(Cl)c6)C5(C)C)cn4)C3)cc1)=N[C@@H](Cc1ncco1)c1nnc(C)n1-2 [Compound I-296] | < 500 | 500 to 1500 |
| < 500 | < 500 | Cc1sc2c(c1C)C(c1ccc(C[C@H]3CCCN(c4ncc(C(=O)N[C@H]5C(C)(C)[C@H](Oc6ccc(C#N)c(Cl)c6)C5(C)C)cn4)C3)cc1)=N[C@@H](Cc1ncco1)c1nnc(C)n1-2 [Compound I-297] | < 500 | 500 to 1500 |
| < 500 | < 500 | Cc1sc2c(c1C)C(c1ccc(CC[C@H]3CCCC(c4ncc(C(=O)N[C@H]5C(C)(C)[C@H](Oc6ccc(C#N)c(Cl)c6)C5(C)C)cn4)C3)cc1)=N[C@@H](Cc1ncco1)c1nnc(C)n1-2 (stereo partly shown) [Compound I-298] | < 500 | < 500 |
| 1500 to 3000 | < 500 | Cc1sc2c(c1C)C(c1ccc(CC[C@@H]3CCCN(c4ncc(C(=O)N[C@H]5C(C)(C)[C@H](Oc6ccc(C#N)c(Cl)c6)C5(C)C)cn4)C3)cc1)=N[C@@H](Cc1ncco1)c1nnc(C)n1-2 [Compound I-299] | < 500 | 500 to 1500 |
| < 500 | < 500 | Cc1sc2c(c1C)C(c1ccc(OCC[C@@H]3CCCN(c4ncc(C(=O)N[C@H]5C(C)(C)[C@H](Oc6ccc(C#N)c(Cl)c6)C5(C)C)cn4)C3)cc1)=N[C@@H](Cc1ncco1)c1nnc(C)n1-2 [Compound I-300] | < 500 | 500 to 1500 |
| < 500 | < 500 | Cc1sc2c(c1C)C(c1ccc(OCC[C@H]3CCCN(c4ncc(C(=O)N[C@H]5C(C)(C)[C@H](Oc6ccc(C#N)c(Cl)c6)C5(C)C)cn4)C3)cc1)=N[C@@H](Cc1ncco1)c1nnc(C)n1-2 [Compound I-301] | < 500 | 500 to 1500 |
| < 500 | < 500 | Cc1sc2c(c1C)C(c1ccc([C@H]3CCCN(c4ncc(C(=O)N[C@H]5C(C)(C)[C@H](Oc6ccc(C#N)c(Cl)c6)C5(C)C)cn4)C3)cc1)=N[C@@H](Cc1ncco1)c1nnc(C)n1-2 [Compound I-302] | < 500 | 500 to 1500 |
| < 500 | < 500 | Cc1sc2c(c1C)C(c1ccc(C[C@H]3CC[C@@]4(C3)CN(c3ncc(C(=O)N[C@H]5C(C)(C)[C@H](Oc6ccc(C#N)c(Cl)c6)C5(C)C)cn3)CCO4)cc1)=N[C@@H](Cc1ncco1)c1nnc(C)n1-2 [Compound I-311] | < 500 | < 500 |
| 1500 to 3000 | < 500 | Cc1sc2c(c1C)C(c1ccc(C[C@@H]3CC[C@]4(C3)CN(c3ncc(C(=O)N[C@H]5C(C)(C)[C@H](Oc6ccc(C#N)c(Cl)c6)C5(C)C)cn3)CCO4)cc1)=N[C@H](Cc1ncco1)c1nnc(C)n1-2 [Compound I-312] | < 500 | < 500 |
